This assay addresses T1, human mGlu5a receptor (Homo sapiens, UniProt P41594).
T1 construct: expressed in transfected cells
The assay is described as follows: Intracellular Ca2+ mobilization assay (mGlu5 PAM). The note with it: for Emax: HEK293, maximal response in % of the maximal stimulatory effect obtained with saturating concentrations of L-glutamate, HEK-293 human mGlu5a cells, read-out: Eff. (%); for EC50: HEK-293 cells stably transfected with human mGlu5a receptor, L-glutamate added at EC20 (typically around 80 μM) after 10-30 min pre-incubation with test compound, read-out: EC50 (nM) mGlu5PAM. It is filed as cell-based. Here is the method: A monoclonal HEK-293 cell line stably transfected with a cDNA encoding for the human mGlu5a receptor was generated; for the work with mGlu5 Positive Allosteric Modulators (PAMs), a cell line with low receptor expression levels and low constitutive receptor activity was selected to allow the differentiation of agonistic versus PAM activity. Cells were cultured according to standard protocols (Freshney, 2000) in Dulbecco's Modified Eagle Medium with high glucose supplemented with 1 mM glutamine, 10% (vol/vol) heat-inactivated bovine calf serum, Penicillin/Streptomycin, 50 μg/ml hygromycin and 15 μg/ml blasticidin (all cell culture reagents and antibiotics from Invitrogen, Basel, Switzerland).
About 24 hrs before an experiment, 5×10^4 cells/well were seeded in poly-D-lysine coated, black/clear-bottomed 96-well plates. The cells were loaded with 2.5 μM Fluo-4AM in loading buffer (1×HBSS, 20 mM HEPES) for 1 hr at 37° C. and washed five times with loading buffer. The cells were transferred into a Functional Drug Screening System 7000 (Hamamatsu, Paris, France), and 11 half logarithmic serial dilutions of test compound at 37° C. were added and the cells were incubated for 10-30 min with on-line recording of fluorescence. Following this pre-incubation step, the agonist L-glutamate was added to the cells at a concentration corresponding to EC20 (typically around 80 μM) with on-line recording of fluorescence; in order to account for day-to-day variations in the responsiveness of cells, the EC20 of glutamate was determined immediately ahead of each experiment by recording of a full dose-response curve of glutamate.
Responses were measured as peak increase in fluorescence minus basal (i.e. fluorescence without addition of L-glutamate), normalized to the maximal stimulatory effect obtained with saturating concentrations of L-glutamate. Graphs were plotted with the % maximal stimulatory using XLfit, a curve fitting program that iteratively plots the data using Levenburg Marquardt algorithm. The single site competition analysis equation used was y=A+((B−A)/(1+((x/C)D))), where y is the % maximal stimulatory effect, A is the minimum y, B is the maximum y, C is the EC50, x is the log 10 of the concentration of the competing compound and D is the slope of the curve (the Hill Coefficient). From these curves the EC50 (concentration at which half maximal stimulation was achieved), the Hill coefficient as well as the maximal response in % of the maximal stimulatory effect obtained with saturating concentrations of L-glutamate were calculated.
A depression of the signal observed after addition of the EC20 concentration of L-glutamate was indicative of an inhibitory activity of the test compound.
In general terms: A change in cytosolic calcium serves as a functional read-out for many receptors and channels.

Our source for the Emax and EC50 values is US8772300B2, “Phenyl or pyridinyl-ethynyl derivatives” (Hoffmann-La Roche Inc., priority 2011, dated 2014).

Usually EC50 stands for the concentration at which the effect is half-maximal.

T1 sequence (P41594 21-1180 isoform P41594-2 limits assumed): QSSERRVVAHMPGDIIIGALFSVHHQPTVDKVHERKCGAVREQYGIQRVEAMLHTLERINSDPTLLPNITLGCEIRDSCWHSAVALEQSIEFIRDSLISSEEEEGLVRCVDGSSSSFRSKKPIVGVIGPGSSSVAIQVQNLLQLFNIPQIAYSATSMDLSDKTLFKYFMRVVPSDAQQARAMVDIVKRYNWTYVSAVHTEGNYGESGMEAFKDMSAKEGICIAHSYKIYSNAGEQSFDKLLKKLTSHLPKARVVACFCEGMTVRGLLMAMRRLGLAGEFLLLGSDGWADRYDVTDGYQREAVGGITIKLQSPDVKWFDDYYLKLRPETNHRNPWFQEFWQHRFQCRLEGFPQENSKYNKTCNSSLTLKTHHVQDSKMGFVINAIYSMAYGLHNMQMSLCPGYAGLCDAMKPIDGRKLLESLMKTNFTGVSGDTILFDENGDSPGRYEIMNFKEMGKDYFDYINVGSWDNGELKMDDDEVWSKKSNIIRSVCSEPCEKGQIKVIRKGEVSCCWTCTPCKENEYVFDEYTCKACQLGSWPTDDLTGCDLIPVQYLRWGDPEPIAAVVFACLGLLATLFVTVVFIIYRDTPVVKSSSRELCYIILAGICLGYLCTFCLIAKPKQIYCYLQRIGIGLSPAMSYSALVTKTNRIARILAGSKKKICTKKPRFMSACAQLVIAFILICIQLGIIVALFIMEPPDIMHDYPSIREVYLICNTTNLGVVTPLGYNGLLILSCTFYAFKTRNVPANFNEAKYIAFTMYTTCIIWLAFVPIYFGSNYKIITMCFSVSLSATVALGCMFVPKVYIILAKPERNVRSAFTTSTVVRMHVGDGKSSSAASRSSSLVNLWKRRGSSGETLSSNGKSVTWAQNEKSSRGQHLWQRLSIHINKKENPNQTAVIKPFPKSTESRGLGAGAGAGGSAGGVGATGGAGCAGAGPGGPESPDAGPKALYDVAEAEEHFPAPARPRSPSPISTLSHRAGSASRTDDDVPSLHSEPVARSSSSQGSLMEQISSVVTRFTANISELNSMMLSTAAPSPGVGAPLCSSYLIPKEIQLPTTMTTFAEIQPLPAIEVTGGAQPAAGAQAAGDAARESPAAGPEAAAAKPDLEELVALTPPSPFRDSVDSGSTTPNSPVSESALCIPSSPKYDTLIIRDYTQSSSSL

Take `CN(C(=O)c1ccc(C#Cc2cncc(F)c2)cn1)C(C)(C)C` [Example 8, 5-(5-Fluoro-pyridin-3-ylethynyl)-pyridine-2-carboxylic Acid tert-butyl-methyl-amide]: the Emax was 79% and the EC50 came to 62 nM.

For `CC(C)(C)NC(=O)c1ncc(C#Cc2ccc(F)cc2)cn1` [Example 9, 5-(4-Fluoro-phenylethynyl)-pyrimidine-2-carboxylic Acid tert-butylamide], the Emax was 90% and the EC50 is 127 nM.

`CC(C)(C)NC(=O)c1ncc(C#Cc2cccc(F)c2)cn1` [Example 10, 5-(3-Fluoro-phenylethynyl)-pyrimidine-2-carboxylic Acid tert-butylamide]: the Emax stood at 81% and the EC50 turned out to be 36 nM.

Consider `CN(C(=O)c1ncc(C#Cc2ccc(F)cc2)cn1)C(C)(C)C` [Example 11, 5-(4-Fluoro-phenylethynyl)-pyrimidine-2-carboxylic Acid tert-butyl-methyl-amide], for which the Emax is 69% and the EC50 worked out at 34 nM.

On to `CN(C(=O)c1ncc(C#Cc2cccc(F)c2)cn1)C(C)(C)C` [Example 12, 5-(3-Fluoro-phenylethynyl)-pyrimidine-2-carboxylic Acid tert-butyl-methyl-amide], for which the Emax came to 55% and the EC50 turned out to be 23 nM.

With `Cc1cccc(C#Cc2cnc(C(=O)NC(C)(C)C)nc2)c1` [Example 13, 5-m-Tolylethynyl-pyrimidine-2-carboxylic Acid tert-butylamide], the Emax came out at 83% and the EC50 amounted to 71 nM.

Take `CC(C)(C)NC(=O)c1ncc(C#Cc2cccc(Cl)c2)cn1` [Example 14, 5-(3-Chloro-phenylethynyl)-pyrimidine-2-carboxylic Acid tert-butylamide]: the Emax worked out at 95% and the EC50 was 111 nM.

For `CN(C(=O)c1ncc(C#Cc2cc(F)ccc2F)cn1)C(C)(C)C` [Example 15, 5-(2,5-Difluoro-phenylethynyl)-pyrimidine-2-carboxylic Acid tert-butyl-methyl-amide], the Emax is 32% and the EC50 is 35 nM.

For the compound `CN(C(=O)c1ncc(C#Cc2cncc(Cl)c2)cn1)C(C)(C)C` [Example 16, 5-(5-Chloro-pyridin-3-ylethynyl)-pyrimidine-2-carboxylic Acid tert-butyl-methyl-amide], the Emax stood at 27% and the EC50 came out at 58 nM.

Turning to `Cc1cc(C#Cc2cccc(F)c2)cnc1C(=O)N(C)C(C)(C)C` [Example 17, 5-(3-Fluoro-phenylethynyl)-3-methyl-pyridine-2-carboxylic Acid tert-butyl-methyl-amide], the Emax turned out to be 49% and the EC50 turned out to be 37 nM.

In the case of `Cc1cc(C#Cc2ccc(F)cc2)cnc1C(=O)N(C)C(C)(C)C` [Example 18, 5-(4-Fluoro-phenylethynyl)-3-methyl-pyridine-2-carboxylic Acid tert-butyl-methyl-amide], the Emax amounted to 71% and the EC50 was found to be 76 nM.

In the case of `Cc1cc(C#Cc2cc(F)ccc2F)cnc1C(=O)N(C)C(C)(C)C` [Example 19, 5-(2,5-Difluoro-phenylethynyl)-3-methyl-pyridine-2-carboxylic Acid tert-butyl-methyl-amide], the Emax amounted to 29% and the EC50 is 33 nM.

Take `Cc1cc(C#Cc2cncc(Cl)c2)cnc1C(=O)N(C)C(C)(C)C` [Example 20, 5-(5-Chloro-pyridin-3-ylethynyl)-3-methyl-pyridine-2-carboxylic Acid tert-butyl-methyl-amide]: the Emax was 26% and the EC50 is 102 nM.

As for `CN(C(=O)c1ncc(C#Cc2cccc(F)c2)cc1F)C(C)(C)C` [Example 21, 3-Fluoro-5-(3-fluoro-phenylethynyl)-pyridine-2-carboxylic Acid tert-butyl-methyl-amide], the Emax stood at 54% and the 50% effective concentration (EC50) was 18 nM.

Take `CN(C(=O)c1ncc(C#Cc2ccc(F)cc2)cc1F)C(C)(C)C` [Example 22, 3-Fluoro-5-(4-fluoro-phenylethynyl)-pyridine-2-carboxylic Acid tert-butyl-methyl-amide]: the Emax was 65% and the EC50 was found to be 32 nM.

Take `CN(C(=O)c1ncc(C#Cc2cc(F)ccc2F)cc1F)C(C)(C)C` [Example 23, 5-(2,5-Difluoro-phenylethynyl)-3-fluoro-pyridine-2-carboxylic Acid tert-butyl-methyl-amide]: the Emax was 38% and the EC50 turned out to be 10 nM.

Consider `CN(C(=O)c1ncc(C#Cc2cncc(Cl)c2)cc1F)C(C)(C)C` [Example 24, 5-(5-Chloro-pyridin-3-ylethynyl)-3-fluoro-pyridine-2-carboxylic Acid tert-butyl-methyl-amide], for which the Emax stood at 29% and the EC50 amounted to 11 nM.

For the compound `CN(C(=O)c1ccc(C#Cc2cccc(F)c2)cn1)C1CCC1` [Example 25, 5-(3-Fluoro-phenylethynyl)-pyridine-2-carboxylic Acid cyclobutyl-methyl-amide], the Emax turned out to be 56% and the EC50 was 32 nM.

`O=C(NC1COC1)c1ccc(C#Cc2cccc(F)c2)cn1` [Example 26, 5-(3-Fluoro-phenylethynyl)-pyridine-2-carboxylic Acid oxetan-3-ylamide]: the Emax was 80% and the EC50 was found to be 43 nM.

As to `CN(C(=O)c1ccc(C#Cc2cccc(F)c2)cn1)C1(C)COC1` [Example 27, 5-(3-Fluoro-phenylethynyl)-pyridine-2-carboxylic Acid methyl-(3-methyl-oxetan-3-yl)-amide], the Emax was determined as 53% and the EC50 was 24 nM.

As for `CN(C(=O)c1ccc(C#Cc2ccc(F)cc2)cn1)C1(C)COC1` [Example 28, 5-(4-Fluoro-phenylethynyl)-pyridine-2-carboxylic Acid methyl-(3-methyl-oxetan-3-yl)-amide], the Emax amounted to 68% and the EC50 was 37 nM.

For the compound `CN(C(=O)c1ccc(C#Cc2cc(F)ccc2F)cn1)C1(C)COC1` [Example 29, 5-(2,5-Difluoro-phenylethynyl)-pyridine-2-carboxylic Acid methyl-(3-methyl-oxetan-3-yl)-amide], the Emax came out at 45% and the EC50 amounted to 21 nM.

As for `CN(C(=O)c1ccc(C#Cc2ccc(F)c(F)c2)cn1)C1(C)COC1` [Example 30, 5-(3,4-Difluoro-phenylethynyl)-pyridine-2-carboxylic Acid methyl-(3-methyl-oxetan-3-yl)-amide], the Emax amounted to 50% and the EC50 was found to be 60 nM.

Regarding `CN(C(=O)c1ccc(C#Cc2cccc(F)c2)cn1)C1(C)CC1` [Example 31, 5-(3-Fluoro-phenylethynyl)-pyridine-2-carboxylic Acid methyl-(1-methyl-cyclopropyl)-amide], the Emax is 43% and the concentration for a half-maximal effect (EC50) turned out to be 17 nM.

Take `CN(C(=O)c1ccc(C#Cc2ccc(F)cc2)cn1)C1(C)CC1` [Example 32, 5-(4-Fluoro-phenylethynyl)-pyridine-2-carboxylic Acid methyl-(1-methyl-cyclopropyl)-amide]: the Emax was 59% and the 50% effective concentration (EC50) is 24 nM.

On to `CN(C(=O)c1ccc(C#Cc2cccc(Cl)c2)cn1)C1(C(F)(F)F)CC1` [Example 33, 5-(3-Chloro-phenylethynyl)-pyridine-2-carboxylic Acid methyl-(1-trifluoromethyl-cyclopropyl)-amide], for which the Emax amounted to 37% and the EC50 amounted to 33 nM.

As for `Cc1cccc(C#Cc2ccc(C(=O)N(C)C3(C(F)(F)F)CC3)nc2)c1` [Example 34, 5-m-Tolylethynyl-pyridine-2-carboxylic Acid methyl-(1-trifluoromethyl-cyclopropyl)-amide], the Emax is 46% and the EC50 was determined as 27 nM.

On to `CC1(C)CN(C(=O)c2ccc(C#Cc3cccc(F)c3)cn2)CCO1` [Example 35, (2,2-Dimethyl-morpholin-4-yl)-[5-(3-fluoro-phenylethynyl)-pyridin-2-yl]-methanone], for which the Emax turned out to be 57% and the 50% effective concentration (EC50) was found to be 46 nM.

With `CC1(C)CN(C(=O)c2ccc(C#Cc3cc(F)ccc3F)cn2)CCO1` [Example 36, [5-(2,5-Difluoro-phenylethynyl)-pyridin-2-yl]-(2,2-dimethyl-morpholin-4-yl)-methanone], the Emax came out at 44% and the EC50 was determined as 56 nM.
